Reference: ChEMBL document CHEMBL1125860 (J Med Chem, 1991)
Each block holds one compound with its values, some of them ahead of it. The source made the active and inactive calls. The rule behind the calls is not given here.

Columns and labels:
Rattus norvegicus [1] = test: In vivo inhibition of galactitol accumulation in diaphragm of rat at 50 mg/kg/day; Not significant; assay type: functional, organism-based
[2] = target: Aldo-keto reductase family 1 member B1 (Bos taurus) (UniProt P16116); test: In vitro % decrease of aldose reductase measured in isolated partially purified bovine lens preparations at 10e-7 M concentration
Rattus norvegicus [3] = species: Rattus norvegicus; test: In vitro inhibition of sorbitol accumulation was measured in rat sciatic nerves incubated in the presence of 50 mM glucose at 10e-5 M concentration; assay type: functional, Sciatic nerve
Rattus norvegicus [4] = species: Rattus norvegicus; test: In vitro inhibition of sorbitol accumulation was measured in rat sciatic nerves incubated in the presence of 50 mM glucose at 10e-6 M concentration; assay type: functional, Sciatic nerve
Rattus norvegicus [5] = test: In vivo inhibition of galactitol accumulation in sciatic nerves of rat at 50 mg/kg/day; Not significant; assay type: functional, organism-based; conditions: Sciatic nerve
Rattus norvegicus [6] = test: In vivo inhibition of galactitol accumulation in diaphragm of rat at 48 mg/kg/day; Not significant; assay type: functional, organism-based
[7] = target: Aldo-keto reductase family 1 member B1 (Bos taurus) (UniProt P16116); test: In vitro % decrease of aldose reductase was measured in isolated partially purified bovine lens preparations at 10e-7 M concentration; Not active
Rattus norvegicus [8] = test: In vivo inhibition of galactitol accumulation in sciatic nerves of rat at 48 mg/kg/day; Not significant; assay type: functional, organism-based; conditions: Sciatic nerve
Rattus norvegicus [9] = test: In vivo inhibition of galactitol accumulation in diaphragm of rat at 26 mg/kg/day; assay type: functional
Rattus norvegicus [10] = test: In vivo inhibition of galactitol accumulation in sciatic nerves of rat at 48 mg/kg/day; assay type: functional; conditions: Sciatic nerve
Rattus norvegicus [11] = test: In vivo inhibition of galactitol accumulation in diaphragm of rat at 50 mg/kg/day; assay type: functional
Rattus norvegicus [12] = test: In vivo inhibition of galactitol accumulation in sciatic nerves of rat at 50 mg/kg/day; assay type: functional; conditions: Sciatic nerve
Rattus norvegicus [13] = test: In vivo inhibition of galactitol accumulation in sciatic nerves of rat at 26 mg/kg/day; assay type: functional; conditions: Sciatic nerve
Rattus norvegicus [14] = test: In vivo inhibition of galactitol accumulation in diaphragm of rat at 24 mg/kg/day; assay type: functional
Rattus norvegicus [15] = test: In vivo inhibition of galactitol accumulation in sciatic nerves of rat at 24 mg/kg/day; assay type: functional; conditions: Sciatic nerve
Rattus norvegicus [16] = test: In vivo inhibition of galactitol accumulation in sciatic nerves of rat at 47 mg/kg/day; Not significant; assay type: functional, organism-based; conditions: Sciatic nerve
[17] = target: Aldo-keto reductase family 1 member B1 (Bos taurus) (UniProt P16116); test: In vitro % decrease of aldose reductase was measured in isolated partially purified bovine lens preparations at 10e-6 M concentration
Rattus norvegicus [18] = test: In vivo inhibition of galactitol accumulation in diaphragm of rat at 47 mg/kg/day; Not significant; assay type: functional, organism-based
Rattus norvegicus [19] = test: In vivo inhibition of galactitol accumulation in diaphragm of rat at 53 mg/kg/day; assay type: functional
Rattus norvegicus [20] = test: In vivo inhibition of galactitol accumulation in sciatic nerves of rat at 53 mg/kg/day; Not significant; assay type: functional, organism-based; conditions: Sciatic nerve
Rattus norvegicus [21] = test: In vivo inhibition of galactitol accumulation in diaphragm of rat at 48 mg/kg/day; assay type: functional
Rattus norvegicus [22] = test: In vivo inhibition of galactitol accumulation in sciatic nerves of rat at 26 mg/kg/day; Not significant; assay type: functional, organism-based; conditions: Sciatic nerve
Rattus norvegicus [23] = test: In vivo inhibition of galactitol accumulation in diaphragm of rat at 25 mg/kg/day; […]; assay type: functional, organism-based
Rattus norvegicus [24] = test: In vivo inhibition of galactitol accumulation in sciatic nerves of rat at 25 mg/kg/day; Not significant; assay type: functional, organism-based; conditions: Sciatic nerve
Rattus norvegicus [25] = test: In vivo inhibition of galactitol accumulation in diaphragm of rat at 49 mg/kg/day; assay type: functional
Rattus norvegicus [26] = test: In vivo inhibition of galactitol accumulation in sciatic nerves of rat at 49 mg/kg/day; assay type: functional; conditions: Sciatic nerve

Compound: COc1ccc2c(C(=O)N(C)CC(N)=O)c(C(C)(C)C)ccc2c1C(F)(F)F
- inhibition (Rattus norvegicus [6]): inactive
- inhibition [7]: inactive
- inhibition (Rattus norvegicus [8]): inactive

Compound: COC(=O)N(CC(=O)O)C(=O)c1c(Cl)ccc2c(C(F)(F)F)c(OC)ccc12
- inhibition [2]: 85%
- Inhibition (Rattus norvegicus [3]): 75%
- inhibition in vivo at 26 mg/kg/day (Rattus norvegicus [9]): 68%
- Inhibition (Rattus norvegicus [4]): 49%

Compound: CCCCc1ccc2c(C(F)(F)F)c(OC)ccc2c1C(=O)N(C)CC(N)=O
- inhibition (Rattus norvegicus [6]): inactive
- inhibition [7]: inactive
- inhibition in vivo at 48 mg/kg/day (Rattus norvegicus [10]): 30%

Compound: CCOC(=O)N(CC(=O)O)C(=O)c1c(Cl)ccc2c(C(F)(F)F)c(OC)ccc12
- inhibition [2]: 79%
- Inhibition (Rattus norvegicus [3]): 79%
- inhibition in vivo at 50 mg/kg/day (Rattus norvegicus [11]): 47%
- Inhibition (Rattus norvegicus [4]): 54%
- inhibition (Rattus norvegicus [5]): inactive

Compound: COc1ccc2c(C(=S)N(C)CC(=O)O)c(OCC(F)(F)F)ccc2c1C(F)(F)F
- inhibition [2]: 86%
- inhibition in vivo at 26 mg/kg/day (Rattus norvegicus [13]): 33%
- inhibition in vivo at 26 mg/kg/day (Rattus norvegicus [9]): 88%

Compound: COc1ccc2c(C(=O)N(C)CC(N)=O)c(Cl)ccc2c1C(F)(F)F
- inhibition in vivo at 24 mg/kg/day (Rattus norvegicus [14]): 53%
- inhibition [7]: inactive
- inhibition in vivo at 24 mg/kg/day (Rattus norvegicus [15]): 62%

Compound: COc1ccc2c(C(=O)N(C)CC(=O)O)c(C(C)(C)C)ccc2c1C(F)(F)F
- inhibition (Rattus norvegicus [16]): inactive
- inhibition [2]: 6%
- inhibition [17]: 23%
- inhibition (Rattus norvegicus [18]): inactive

Compound: COc1ccc2c(C(=S)N(C)CC(=O)O)cc(-c3ccccc3)cc2c1C(F)(F)F
- inhibition in vivo at 53 mg/kg/day (Rattus norvegicus [19]): 82%
- inhibition [2]: 93%
- inhibition (Rattus norvegicus [20]): inactive
- Inhibition (Rattus norvegicus [3]): 87%
- Inhibition (Rattus norvegicus [4]): 36%

Compound: COc1ccc2c(C(=O)N(C)CC(N)=O)c(OCC(F)(F)F)ccc2c1C(F)(F)F
- inhibition [7]: inactive
- inhibition (Rattus norvegicus [23]): inactive
- inhibition (Rattus norvegicus [24]): inactive

Compound: COc1ccc2c(C(=O)N(C)CC(=O)O)c(Cc3ccccc3)ccc2c1C(F)(F)F
- inhibition (Rattus norvegicus [1]): inactive
- inhibition [2]: 52%
- inhibition (Rattus norvegicus [5]): inactive

Compound: CCOc1ccc2c(C(F)(F)F)c(OC)ccc2c1C(=O)N(C)CC(=O)O
- inhibition in vivo at 49 mg/kg/day (Rattus norvegicus [25]): 57%
- inhibition in vivo at 49 mg/kg/day (Rattus norvegicus [26]): 45%
- inhibition [2]: 65%
- Inhibition (Rattus norvegicus [3]): 55%
- Inhibition (Rattus norvegicus [4]): 30%

Second part, led by results:

- inhibition [2]: 63%
Compound: COc1ccc2c(C(=O)N(C)CC(=O)O)cc(-c3ccccc3)cc2c1C(F)(F)F
- inhibition (Rattus norvegicus [1]): inactive
- Inhibition (Rattus norvegicus [3]): 77%
- Inhibition (Rattus norvegicus [4]): 32%
- inhibition (Rattus norvegicus [5]): inactive

- inhibition [2]: 46%
Compound: CCCOc1ccc2c(C(F)(F)F)c(OC)ccc2c1C(=O)N(C)CC(=O)O
- inhibition in vivo at 50 mg/kg/day (Rattus norvegicus [11]): 57%
- inhibition in vivo at 50 mg/kg/day (Rattus norvegicus [12]): 48%

- inhibition [2]: 83%
Compound: COc1ccc2c(C(=O)N(C)CC(=O)O)c(Oc3ccccc3)ccc2c1C(F)(F)F
- inhibition in vivo at 48 mg/kg/day (Rattus norvegicus [21]): 67%
- Inhibition (Rattus norvegicus [3]): 78%
- Inhibition (Rattus norvegicus [4]): 45%
- inhibition in vivo at 48 mg/kg/day (Rattus norvegicus [10]): 32%

- inhibition [2]: 69%
Compound: COc1ccc2c(C(=O)N(C)CC(=O)O)c(SC)ccc2c1C(F)(F)F
- inhibition (Rattus norvegicus [1]): inactive
- Inhibition (Rattus norvegicus [3]): 60%
- Inhibition (Rattus norvegicus [4]): 41%
- inhibition (Rattus norvegicus [5]): inactive

- inhibition [2]: 91%
Compound: COc1ccc2c(C(F)(F)F)c(OC)ccc2c1C(=S)N(C)CC(=O)O
- inhibition (Rattus norvegicus [22]): inactive
- inhibition in vivo at 26 mg/kg/day (Rattus norvegicus [9]): 71%

- inhibition [2]: 32%
Compound: COc1ccc2c(C(=O)N(C)CC(=O)O)c(C(F)(F)F)ccc2c1C(F)(F)F
- inhibition in vivo at 48 mg/kg/day (Rattus norvegicus [21]): 52%
- Inhibition (Rattus norvegicus [3]): 65%
- inhibition (Rattus norvegicus [8]): inactive
- Inhibition (Rattus norvegicus [4]): 35%

- inhibition [2]: 94%
Compound: COc1ccc2c(C(=S)N(C)CC(=O)O)cc(Br)cc2c1Br
- inhibition (Rattus norvegicus [22]): inactive
- inhibition in vivo at 26 mg/kg/day (Rattus norvegicus [9]): 86%
